Data reported in EPA's ToxValDB 9.5 (doi:10.2903/j.efsa.2011.1965).

Key:
[1] = test system: Anas platyrhynchos; settings: for LD50: oral, mortality
[2] = test system: Apis mellifera; settings: acute; duration: 48 hours; oral; unspecified; mortality
[3] = test system: Colinus virginianus; settings: for LD50: acute, oral, mortality
[4] = test system: Cyprinus carpio; settings: acute; duration: 96 hours; mortality
[5] = test system: Daphnia magna; settings: chronic/long-term; duration: 21 days; reproduction
[6] = test system: Oncorhynchus mykiss; settings: chronic/long-term; duration: 21 days; behavior
[7] = test system: Oryctolagus sp.; settings: reproduction developmental; reproduction
[8] = test system: Rattus norvegicus
[9] = test system: Tagia sp.; settings: acute; duration: 14 days; mortality
[10] = test system: Typhlodromus pyri; test: LR50; higher = less toxic; settings: not reported; mortality

COc1c(Cl)ccc(Cl)c1C(=O)O [Dicamba]
LD50 ([1]; acute, unspecified): 1370 mg/kg-day
NOEL ([1]; reproductive): 89 mg/kg-day
LD50 ([1]; short-term, feed): > 1570 mg/kg-day
LD50 [2]: > 100 µg/piece
LD50 ([3]; diet): > 995 mg/kg-day
LD50 [3]: 216 mg/kg-day
NOEL ([3]; reproduction developmental): 170 mg/kg-day
LC50 [4]: > 100 mg/L
NOEC [5]: 97 mg/L
NOEC [6]: 180 mg/L
NOAEL [7]: 30 mg/kg-day
LD50 ([8]; acute, oral, F, mortality): 1580 mg/kg-day
NOAEL ([8]; reproduction developmental, body weight): 35 mg/kg-day
LC50 [9]: > 1000 mg/kg
LR50 [10]: 233 g/ha
